This is an account of results in patent publication EP3623369A1, “NOVEL MORPHOLINYL AMINE COMPOUNDS FOR THE TREATMENT OF AUTOIMMUNE DISEASE” (F. Hoffmann-La Roche AG, priority 2018, dated 2020).

Where only a bound is given, the exact number is not on record here.

The target of one data set is T1, hTLR9 (Homo sapiens, UniProt Q9NR96).
T1 sequence (Q9NR96 26-1032): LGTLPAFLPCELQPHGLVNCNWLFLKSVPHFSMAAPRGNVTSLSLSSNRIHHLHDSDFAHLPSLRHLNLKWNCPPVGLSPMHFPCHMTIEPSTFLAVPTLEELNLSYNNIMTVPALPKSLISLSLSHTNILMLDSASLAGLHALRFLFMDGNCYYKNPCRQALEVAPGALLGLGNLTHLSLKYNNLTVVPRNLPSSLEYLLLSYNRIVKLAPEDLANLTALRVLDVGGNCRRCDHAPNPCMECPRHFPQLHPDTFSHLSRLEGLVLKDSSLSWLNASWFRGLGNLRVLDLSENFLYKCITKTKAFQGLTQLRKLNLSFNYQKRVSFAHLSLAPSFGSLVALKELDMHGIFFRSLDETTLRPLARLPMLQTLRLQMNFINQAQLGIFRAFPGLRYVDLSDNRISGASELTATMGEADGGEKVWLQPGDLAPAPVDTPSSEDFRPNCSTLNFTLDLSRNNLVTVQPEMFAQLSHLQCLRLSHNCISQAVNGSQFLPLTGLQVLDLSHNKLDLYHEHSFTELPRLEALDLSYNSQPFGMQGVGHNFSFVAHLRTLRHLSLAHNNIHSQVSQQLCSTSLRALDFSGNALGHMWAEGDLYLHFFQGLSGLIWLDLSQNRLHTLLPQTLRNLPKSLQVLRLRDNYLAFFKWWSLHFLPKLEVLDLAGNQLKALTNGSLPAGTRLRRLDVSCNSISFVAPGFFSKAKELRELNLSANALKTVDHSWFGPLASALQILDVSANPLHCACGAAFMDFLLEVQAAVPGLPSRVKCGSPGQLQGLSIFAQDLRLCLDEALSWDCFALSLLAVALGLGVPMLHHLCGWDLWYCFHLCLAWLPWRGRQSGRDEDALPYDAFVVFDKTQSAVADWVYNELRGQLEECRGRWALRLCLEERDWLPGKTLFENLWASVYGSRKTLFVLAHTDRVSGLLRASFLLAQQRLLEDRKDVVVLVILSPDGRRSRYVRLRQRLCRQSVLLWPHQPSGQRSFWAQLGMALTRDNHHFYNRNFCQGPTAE
Further details: host or cells: HEK. Particulars: data disclosed in US20150105370; read-out: HEK/hTLR9 IC50; cited from earlier work.

A further data set addresses T2, hTLR7 (Homo sapiens, UniProt Q9NYK1).
T2 sequence (Q9NYK1 27-1049): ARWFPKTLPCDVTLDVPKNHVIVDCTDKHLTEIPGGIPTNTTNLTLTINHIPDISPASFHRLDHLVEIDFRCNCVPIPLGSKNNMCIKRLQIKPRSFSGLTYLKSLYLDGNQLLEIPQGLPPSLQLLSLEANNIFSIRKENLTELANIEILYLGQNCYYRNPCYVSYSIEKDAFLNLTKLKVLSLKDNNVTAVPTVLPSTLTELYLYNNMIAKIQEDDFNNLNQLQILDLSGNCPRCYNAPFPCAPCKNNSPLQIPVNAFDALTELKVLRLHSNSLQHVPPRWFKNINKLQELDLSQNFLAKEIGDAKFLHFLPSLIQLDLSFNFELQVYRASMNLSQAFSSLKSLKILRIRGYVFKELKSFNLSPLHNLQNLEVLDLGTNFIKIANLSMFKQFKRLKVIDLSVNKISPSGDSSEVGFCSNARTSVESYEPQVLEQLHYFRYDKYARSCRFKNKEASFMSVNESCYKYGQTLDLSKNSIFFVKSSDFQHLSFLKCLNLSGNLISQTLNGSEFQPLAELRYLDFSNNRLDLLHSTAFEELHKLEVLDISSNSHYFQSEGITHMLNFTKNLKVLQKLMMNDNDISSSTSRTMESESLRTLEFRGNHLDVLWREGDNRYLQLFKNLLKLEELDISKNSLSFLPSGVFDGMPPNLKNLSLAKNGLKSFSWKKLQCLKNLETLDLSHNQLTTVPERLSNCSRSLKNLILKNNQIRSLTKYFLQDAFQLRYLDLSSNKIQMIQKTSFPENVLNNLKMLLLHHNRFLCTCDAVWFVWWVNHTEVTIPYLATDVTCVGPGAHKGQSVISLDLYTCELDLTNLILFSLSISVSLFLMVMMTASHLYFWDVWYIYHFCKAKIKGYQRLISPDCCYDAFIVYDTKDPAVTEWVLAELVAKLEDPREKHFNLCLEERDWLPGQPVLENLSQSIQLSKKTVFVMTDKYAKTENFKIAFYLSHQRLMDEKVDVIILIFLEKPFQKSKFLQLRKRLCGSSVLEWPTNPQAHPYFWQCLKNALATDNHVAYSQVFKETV
Further details: host or cells: HEK. Particulars: data disclosed in US20150105370; read-out: HEK/hTLR7 IC50; cited from earlier work.

A short description of data set [1]: Human microsome stability assay. Particulars: human liver microsomes, 1 µM test compound, 0.5 mg/mL protein, 37°C, up to 30 minutes. The class given is in vitro ADME. The method, then: Human microsome stability assay
The human microsomal stability assay is used for early assessment of metabolic stability of a test compound in human liver microsomes.
Human liver microsomes (Cat.NO.: 452117, Corning, USA;Cat.NO.:H2610, Xenotech, USA) were preincubated with test compound for 10 minutes at 37°C in 100 mM potassium phosphate buffer, pH 7.4. The reactions were initiated by adding NADPH regenerating system. The final incubation mixtures contained 1 µM test compound, 0.5 mg/mL liver microsomal protein, 1 mM MgCl2, 1 mM NADP, 1 unit/mL isocitric dehydrogenase and 6 mM isocitric acid in 100 mM potassium phosphate buffer, pH 7.4. After incubation times of 0, 3, 6, 9, 15 and 30 minutes at 37°C, 300 µL of cold acetonitrile (including internal standard) was added to 100 µL incubation mixture to terminate the reaction. Following precipitation and centrifugation, the amount of compound remaining in the samples were determined by LC-MS/MS. Controls of no NADPH regenerating system at zero and 30 minutes were also prepared and analyzed. […] Table 3. Human liver microsome stability of the compounds of present invention

As to `C[C@@H]1CN(c2ccc(C#N)c3ncccc23)C[C@H](CNc2ccccc2)O1` [ER-886601], the IC50 is over 2 µM on hTLR9 and 0.015 µM at hTLR7. In the case of `Cc1cccc(NC[C@H]2CN(c3ccc(C#N)c4ncccc34)C[C@@H](C)O2)c1` [ER-886602], the IC50 is over 20 µM on hTLR9 and 0.185 µM at hTLR7. Consider `Cc1nc2cc(NC[C@H]3CN(c4ccc(C#N)c5ncccc45)C[C@@H](C)O3)ccc2n1C` [ER-886608], for which the IC50 on hTLR9 is 3.37 µM; on hTLR7 it was 0.013 µM. In the case of `Cc1cccc(NC[C@H]2CN(c3ccc(C#N)c4ncccc34)C[C@@H](C)O2)n1` [ER-886799], the values for the IC50 on hTLR9 and on hTLR7 were over 2 µM and 0.007 µM, respectively. `C[C@@H]1CN(c2ccc(C#N)c3nccnc23)C[C@H](CN2Cc3ccc(N4CC5CCC(C4)N5)cc3C2)O1` [Example 44, 8-[(2S,6R)-2-[[5-(3,8-diazabicyclo[3.2.1]octan-3-yl)isoindolin-2-yl]methyl]-6-methyl-morpholin-4-yl]quinoxaline-5-carbonitrile]: the “Clearance of Human microsome” value in data set [1] is 6.94 mL/min/kg. Take `C[C@@H]1CN(c2ccc(C#N)c3ncccc23)C[C@H](CN2Cc3ccc(N4CCNCC4C(=O)O)cc3C2)O1` (stereo partly drawn) [Example 56, 1-[2-[[(2S,6R)-4-(8-cyano-5-quinolyl)-6-methyl-morpholin-2-yl]methyl]isoindolin-5-yl]piperazine-2-carboxylic acid]: the “Clearance of Human microsome” value in data set [1] worked out at 6.51 mL/min/kg.
